Results taken from BindingDB's records for doi:10.1007/bf00168685 (Centre De Pharmacologie-Endocrinologie (Montpellier, France), 1992).

Biological target: T1, 5-hydroxytryptamine receptor 3A (Rattus norvegicus, UniProt P35563)
T1 sequence (P35563 whole entry): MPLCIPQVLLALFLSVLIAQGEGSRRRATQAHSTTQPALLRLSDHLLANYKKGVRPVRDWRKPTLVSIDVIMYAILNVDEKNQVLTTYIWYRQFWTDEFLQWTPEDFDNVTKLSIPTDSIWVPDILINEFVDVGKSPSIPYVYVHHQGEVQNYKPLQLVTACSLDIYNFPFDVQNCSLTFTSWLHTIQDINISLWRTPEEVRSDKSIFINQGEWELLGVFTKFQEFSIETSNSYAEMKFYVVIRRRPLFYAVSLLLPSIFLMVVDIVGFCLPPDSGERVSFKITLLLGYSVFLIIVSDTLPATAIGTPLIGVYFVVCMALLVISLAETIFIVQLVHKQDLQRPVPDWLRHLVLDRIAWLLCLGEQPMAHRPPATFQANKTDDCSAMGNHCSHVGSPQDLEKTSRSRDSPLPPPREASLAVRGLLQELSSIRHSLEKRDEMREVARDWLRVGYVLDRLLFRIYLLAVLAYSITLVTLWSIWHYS

CN1C2CCC1CC(OC(=O)c1c[nH]c3ccccc13)C2 (stereo unspecified)
Ki: 2.8 nM
